The values that follow come from ChEMBL document CHEMBL1146745, “Studies on anti-Helicobacter pylori agents. Part 3: A novel, efficacious cephem derivative, FR193879” (Bioorg Med Chem Lett, 2004).

Converted amounts (≈) assume the structure as drawn. Where only a bound is given, the exact number is not on record here.

In data set [1] the test system is Rattus norvegicus. Briefly: Recovery rate from urine and bile was determined after iv administration at 20 mg/kg in rats. Type of data set: functional, organism-based. More on the design: dose 20 mg/kg.
Data set [2] relates to Helicobacter pylori. In words: Minimum inhibitory activity against clarithromycin- and metronidazole-resistant strain 16021. Type of data set: functional.
In data set [3] the test system is Helicobacter pylori. In words: Minimum inhibitory activity against clarithromycin- and metronidazole-resistant strain 15069. It is filed as functional.
The test system of data set [4] is Helicobacter pylori. In words: Minimum inhibitory activity against clarithromycin- and metronidazole-resistant strain 16043. It is filed as functional.
Data set [5] in a line: Therapeutic efficacy at an oral dose of 0.1 mg/kg in mouse. Type of data set: ADME, organism-based. Also on record: dose 0.1 mg/kg, route oral. To be noted: in vivo.
A further data set deals with Canis familiaris. Briefly: Non-toxic dose in dogs after 4 weeks of oral administration. Type of data set: functional, Canis lupus familiaris.
For data set [6], the system named is Rattus norvegicus. Briefly: In vivo gastric mucosa concentration administered perorally at 20 mg/kg was determined in rats at 0.5 hr. It is filed as functional. As to conditions: route oral.
Data set [7] has as its system Rattus norvegicus. Briefly: In vivo gastric mucosa concentration administered perorally at 20 mg/kg was determined in rats at 4 hr. To be noted: route oral. It is filed as functional.
Data set [8] is described as follows: Therapeutic efficacy at an oral dose of 0.32 mg/kg in mouse. It is filed as ADME, organism-based. Also on record: dose 0.32 mg/kg, route oral. To be noted: in vivo.
A short description of data set [9]: Therapeutic efficacy at an oral dose of 2 mg/kg in guinea pig. It is filed as ADME, organism-based. Also on record: dose 2 mg/kg, route oral. As to conditions: in vivo.
A short description of data set [10]: Therapeutic efficacy at a dose of 0.32 mg/kg. It is filed as ADME, organism-based. More on the design: dose 0.32 mg/kg. To be noted: in vivo.
Data set [11] in a line: Solubility at a pH of 2.0. It is filed as physicochemical. As to conditions: pH 2.
A short description of data set [12]: Therapeutic efficacy at an oral dose of 0.125 mg/kg in guinea pig. Type of data set: ADME, organism-based. More on the design: dose 0.125 mg/kg, route oral. As to conditions: in vivo.
The nature of data set [13]: Therapeutic efficacy at an oral dose of 0.5 mg/kg in guinea pig. Type of data set: ADME, organism-based. Also on record: dose 0.5 mg/kg, route oral. As to conditions: in vivo.
Data set [14] has as its system Rattus norvegicus. In words: In vivo gastric mucosa concentration administered perorally at 20 mg/kg was determined in rats at 2 hr. It is filed as functional. To be noted: route oral.
Data set [15] concerns Helicobacter pylori. In words: Minimum inhibitory concentration against Helicobacter pylori FP1757. It is filed as functional.
The subject of data set [16] is Rattus norvegicus. In words: In vivo gastric mucosa concentration administered perorally at 20 mg/kg was determined in rats at 1 hr. It is filed as functional. To be noted: route oral.
A short description of data set [17]: Retention time by HPLC as an index of polarity.
Data set [18] in a line: Solubility at a pH of 4.0. Type of data set: physicochemical. As to conditions: pH 4.
A short description of data set [19]: Therapeutic efficacy at a dose of 0.1 mg/kg. Type of data set: ADME, organism-based. More on the design: dose 0.1 mg/kg. As to conditions: in vivo.
For data set [20], the system named is Helicobacter pylori. In words: Minimum inhibitory activity against Helicobacter pylori FP1836. Type of data set: functional.
Data set [21] in a line: Partition coefficient by HPLC retention as an index of polarity. As to conditions: octanol/water. Type of data set: ADME.
A short description of data set [22]: Therapeutic efficacy at an oral dose of 0.032 mg/kg in mouse. Type of data set: ADME, organism-based. Also on record: dose 0.032 mg/kg, route oral. As to conditions: in vivo.
Data set [23] has as its system Helicobacter pylori. In words: Minimum inhibitory activity against Helicobacter pylori FP1757. Type of data set: functional.
In data set [24] the test system is Bacteroides fragilis. Briefly: Stability towards beta-lactamase was determined in […] FP784. It is filed as functional, organism-based.
In data set [25] the test system is Bacteroides fragilis. In words: Relative stability towards beta-lactamase was determined in […] FP784. It is filed as functional.

For the compound `O=C(Cc1ccccc1)NC1C(=O)N2C(C(=O)O)=C(Sc3nncs3)CS[C@H]12` (some centres undefined), in the data set with Rattus norvegicus [1], the Recovery rate is 9%.
Turning to `O=C(Cc1ccccc1)NC1C(=O)N2C(C(=O)O)=C(Sc3cnns3)CS[C@H]12` (some centres undefined), the Recovery rate in the data set with Rattus norvegicus [1] was 21%.
By MIC is commonly meant the smallest concentration in the dilution series that meets the test's criterion for growth inhibition. Lower therefore signals inhibition by little substance. With `Cc1ncc([N+](=O)[O-])n1CCO` [METRONIDAZOLE], the MIC stood at 50 µg/mL (≈ 292 µM) against Helicobacter pylori [2], 25 µg/mL (≈ 146 µM) against Helicobacter pylori [3] and 50 µg/mL (≈ 292 µM) in the data set with Helicobacter pylori [4].
As a reminder, the solubility is the dissolved amount per volume that the medium holds. A low value points to a poorly soluble substance. The term MIC50 denotes an inhibitory concentration at the 50% level, which refers to growth in some studies and to a panel of isolates in others. In the data set with Rattus norvegicus [1], `Cc1nnc(SC2=C(C(=O)O)N3C(=O)C(NC(=O)Cc4ccccc4)[C@H]3SC2)s1` (some centres undefined) gave a Recovery rate of 33%. Besides, the Ratio worked out at 2 in [5]; 5 in data set [8]; 5 in data set [9]; 5 in data set [10]; 0 in [12]; 2 in data set [13]. In addition, the Ratio in [19] was 2; in data set [22] it was 1. The Dose in the data set with Canis familiaris was below 32 mg/kg. Also, the Gastric concentration was determined as 89 µg/g in the data set with Rattus norvegicus [6], 23 µg/g in the data set with Rattus norvegicus [7], 48 µg/g in the data set with Rattus norvegicus [14] and 83 µg/g with Rattus norvegicus [16]. For the same compound, the results for the solubility in data set [11] and in data set [18] were 53 µg/mL (≈ 118 µM) and 1050 µg/mL (≈ 2340 µM), respectively. The compound further came in with an MIC in the data set on Helicobacter pylori [15] of 0.00156 µg/mL (≈ 0.00348 µM). The HPLC retention time in [17] and in data set [21] was 10 min throughout. In addition, in the data set on Helicobacter pylori [20], the MIC50 turned out to be 0.00313 µg/mL (≈ 0.00698 µM).
With `O=C(O)Cc1csc(SC2=C(C(=O)O)N3C(=O)[C@@H](NC(=O)Cc4ccccc4)[C@H]3SC2)n1`, the Ratio in [5] is recorded as 1; in data set [8], 5; in data set [9] it was 2; in data set [12] it was 0; in [13], 0; in data set [22], 2. In addition, the Gastric concentration in the data set on Rattus norvegicus [6] came to 377 µg/g; in the data set with Rattus norvegicus [7], 63 µg/g; in the data set on Rattus norvegicus [14], 111 µg/g; in the data set with Rattus norvegicus [16], 150 µg/g. Also, the solubility in data set [11] is 125 µg/mL (≈ 254 µM); in [18], 1820 µg/mL (≈ 3700 µM). The compound also came in with an HPLC retention time in data set [17] of 9.9 min. Also, the MIC50 stood at 0.00313 µg/mL (≈ 0.00637 µM) against Helicobacter pylori [20] and 0.00039 µg/mL (≈ 0.000793 µM) in the data set on Helicobacter pylori [23].
The term Km denotes the concentration of substrate that gives half-maximal velocity. With `CC1(C)S[C@@H]2[C@H](NC(=O)[C@H](N)c3ccc(O)cc3)C(=O)N2[C@H]1C(=O)O` [AMOXICILLIN], the MIC against Helicobacter pylori [2] stood at 0.025 µg/mL (≈ 0.0684 µM); with Helicobacter pylori [3], 0.2 µg/mL (≈ 0.547 µM); in the data set with Helicobacter pylori [4], 0.05 µg/mL (≈ 0.137 µM). In the data set with Bacteroides fragilis [24], the Km was found to be 27.3 µg/mL. In addition, the Vmax with Bacteroides fragilis [24] came to 0.0175. Moreover, the MIC50 in the data set on Helicobacter pylori [20] amounted to 0.05 µg/mL (≈ 0.137 µM); in the data set with Helicobacter pylori [23], 0.0125 µg/mL (≈ 0.0342 µM).
In the case of `O=C(Cc1cccs1)N[C@@H]1C(=O)N2C(C(=O)[O-])=C(C[n+]3ccccc3)CS[C@H]12`, the Michaelis constant (Km) in the data set on Bacteroides fragilis [24] is 31.7 µg/mL.
As for `Cc1nnc(SC2=C(C(=O)O)N3C(=O)[C@@H](NC(=O)Cc4csc(N)n4)[C@H]3SC2)s1`, the Ratio amounted to 1 in data set [10] and 0 in data set [19]. In addition, the lowest concentration to inhibit growth in the data set with Helicobacter pylori [15] (MIC) was 0.00078 µg/mL (≈ 0.00166 µM). Moreover, the HPLC retention time in [21] was 1 min.
Regarding `O=C(N[C@H](CO)[C@H](O)c1ccc([N+](=O)[O-])cc1)C(Cl)Cl` [CHLORAMPHENICOL], the MIC in the data set on Helicobacter pylori [2] was found to be 50 µg/mL (≈ 155 µM); in the data set on Helicobacter pylori [3] it was 25 µg/mL (≈ 77.4 µM); with Helicobacter pylori [4], 50 µg/mL (≈ 155 µM).
In the case of `O=C(Cc1ccccc1)NC1C(=O)N2C(C(=O)O)=C(Sc3nccs3)CS[C@H]12` (some centres undefined), the Recovery rate in the data set with Rattus norvegicus [1] is 63%.
In the data set on Rattus norvegicus [1], `NC(=O)Cc1csc(SC2=C(C(=O)O)N3C(=O)[C@@H](NC(=O)Cc4ccccc4)[C@H]3SC2)n1` gave a Recovery rate of 68%. Also, the Ratio in data set [5] is listed as 4; in [8] it was 5; in data set [9], 5; in data set [12], 0; in [13] it was 3; in the data set with Bacteroides fragilis [25], 1.06. For the same compound, the Ratio in data set [22] is 1. In the data set with Canis familiaris, this compound yielded a Dose above 100 mg/kg. For the same compound, the Gastric concentration with Rattus norvegicus [6] stood at 385 µg/g; in the data set with Rattus norvegicus [7], 38 µg/g; in the data set with Rattus norvegicus [14], 68 µg/g; in the data set on Rattus norvegicus [16] it was 163 µg/g. For the same compound, the MIC was 0.0016 µg/mL (≈ 0.00326 µM) against Helicobacter pylori [2], 0.0063 µg/mL (≈ 0.0128 µM) against Helicobacter pylori [3] and 0.0016 µg/mL (≈ 0.00326 µM) against Helicobacter pylori [4]. For the same compound, the solubility in data set [11] was 431 µg/mL (≈ 879 µM); in [18], 2210 µg/mL (≈ 4500 µM). Besides, the HPLC retention time in data set [17] is recorded as 6.2 min. The Km in the data set with Bacteroides fragilis [24] is 19.4 µg/mL. In addition, the Vmax with Bacteroides fragilis [24] came out at 0.647. Besides, the values for the MIC50 in the data set on Helicobacter pylori [20] and in the data set with Helicobacter pylori [23] were 0.00313 µg/mL (≈ 0.00638 µM) and 0.00078 µg/mL (≈ 0.00159 µM), respectively.
